Source: patent US20090253687A1, “Fused Heterocyclic Compounds and Their Use as Mineralocorticoid Receptor Ligands” (priority 2005, published 2009)

Target: T1, Human Mineralocorticoid Receptor (hMR) (Homo sapiens, UniProt P08235)
T1 construct: Full-length cDNA was constructed from two fragments of hMR cDNA amplified separately; expressed in transfected cells; host or cells: FreeStyle 293 cells transiently transfected with pMCMVneo-hMR; supernatant of the freeze-thaw lysate after ultracentrifugation
T1 sequence (P08235 1-984): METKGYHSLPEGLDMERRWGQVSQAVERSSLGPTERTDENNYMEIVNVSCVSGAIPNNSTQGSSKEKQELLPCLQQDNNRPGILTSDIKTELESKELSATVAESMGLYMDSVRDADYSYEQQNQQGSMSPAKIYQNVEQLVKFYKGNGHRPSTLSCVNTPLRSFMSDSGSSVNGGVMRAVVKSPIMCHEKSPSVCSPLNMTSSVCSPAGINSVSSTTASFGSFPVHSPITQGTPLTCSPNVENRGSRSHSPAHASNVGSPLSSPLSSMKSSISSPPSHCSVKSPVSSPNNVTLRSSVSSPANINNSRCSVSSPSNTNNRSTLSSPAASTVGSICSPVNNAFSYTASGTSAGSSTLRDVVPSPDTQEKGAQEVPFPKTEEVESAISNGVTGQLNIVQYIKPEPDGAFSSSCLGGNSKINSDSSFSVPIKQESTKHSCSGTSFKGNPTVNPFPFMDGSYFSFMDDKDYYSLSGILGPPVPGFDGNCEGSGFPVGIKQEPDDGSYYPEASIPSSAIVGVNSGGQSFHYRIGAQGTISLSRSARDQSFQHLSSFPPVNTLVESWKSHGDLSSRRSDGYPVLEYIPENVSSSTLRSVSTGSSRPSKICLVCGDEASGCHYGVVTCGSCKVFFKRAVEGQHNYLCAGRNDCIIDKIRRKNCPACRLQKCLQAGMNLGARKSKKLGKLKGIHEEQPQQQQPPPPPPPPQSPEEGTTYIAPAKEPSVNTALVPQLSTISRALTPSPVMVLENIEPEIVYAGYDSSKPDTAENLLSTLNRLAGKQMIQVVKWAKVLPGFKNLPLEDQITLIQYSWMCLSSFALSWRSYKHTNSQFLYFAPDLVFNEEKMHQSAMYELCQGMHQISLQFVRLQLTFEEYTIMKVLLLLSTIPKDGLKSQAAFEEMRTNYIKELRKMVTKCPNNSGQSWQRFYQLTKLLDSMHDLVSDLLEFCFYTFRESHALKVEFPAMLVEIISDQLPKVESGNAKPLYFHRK
Test: Inhibition of binding of [3H]-aldosterone to hMR (lysate of FreeStyle 293 cells expressing hMR)
Conditions: compound at 10^−5 M; 10 nM [3H]-aldosterone; hMR lysate 1.0 mg/ml; 16 hr at 4° C.; read-out: Inhibition rate (at 10^−5 M)
Procedure: The following procedures described in this Example were carried out according to the methods described in Molecular Cloning—Cold Spring Harbor Laboratory (1989) or protocols specified by manufacturers. (1) Cloning of Human Mineralocorticoid Receptor (hMR) cDNA hMR cDNA was amplified by polymerase chain reaction (PCR) from human kidney cDNA library. Full-length cDNA was constructed from two fragments of hMR cDNA amplified separately. The primers were designed referring to the nucleotide sequence of hMR cDNA reported by Arriza et. al (Science 1987; 237: 268-275). The PCR reactions were carried out using Pyrobest® DNA polymerase (Takara). The PCR products were electrophoresed in agarose gel, and 1.7 kb (region (i)) and 1.5 kb (region (ii)) DNA fragments were recovered. Each DNA fragment was inserted into pCR®4Blunt-TOPO® vector (Invitrogen). The resulting plasmids thus obtained were designated as pB-hMR (i) and pB-hMR (ii). To obtain the full-length hMR cDNA, pB-hMR (i) was digested with XhoI and PvuI, and pB-hMR (ii) was digested with PvuI and KpnI, respectively, and the two cDNA fragments were ligated into pBlueScript®IISK+ vector (Stratagene). The resulting plasmid thus obtained was designated as pB-hMR. (2) Construction of hMR Expression Plasmid pMCMVneo (described in WO03/099793) was digested with XhoI and KpnI, and 5.6 kb fragment was ligated with 2.9 kb hMR cDNA fragment obtained by digestion of pB-hMR (described in above (1)) with XhoI and KpnI. The plasmid thus obtained was designated as pMCMVneo-hMR. (3) Expression of hMR in FreeStyle 293 Cells and Preparation of Cell Lysate FreeStyle 293 cells were inoculated at 1×10^8 cells in 93 ml FreeStyle™ 293 Expression Medium (Invitrogen) in a 500 ml Erlenmeyer flask and cultured at 37° C. under 8% CO2 for 1 hr. The cells were treated with 6.7 ml of the transfection mixture containing 100 μg of pMCMVneo-hMR obtained in above (2) and 133 μl of FreeStyle™ 293 Transfection Reagent (Invitrogen). The transfected cells were cultivated for 48 hr at 37° C. in 8% CO2 atmosphere. The cultivated cells were centrifuged and washed with TEG buffer (10 mM Tris-HCl (pH 7.2), 50 mM EDTA, 10% glycerol), and resuspended in 10 ml TEGM buffer (10 mM Tris-HCl (pH 7.2), 1 mM EDTA, 10% glycerol, 1 mM β-mercaptoethanol, 10 mM sodium molybdate, 1 mM dithiothreitol, 2 tablets/100 ml of protease inhibitor cocktail tablets (Roche)). The cell suspension was frozen with liquid nitrogen and thawed on ice, and ultra-centrifuged at 225,000×g for 20 min at 4° C. The supernatant fraction including hMR (hMR lysate) was collected and stored at −80° C. (4) Measurement of Inhibition Activity Against Binding of hMR and Aldosterone [^3H]-Aldosterone (Amersham Biosciences) as ligand was added at 10 nM to the reaction mixture including test compound at various concentration and hMR lysate (1.0 mg/ml) obtained in above (3) and mixture was filled up to 50.5 μl with TEGM buffer. The reaction mixture was incubated for 16 hr at 4° C. and 35 μl of dextran/gelatin coated charcoal suspension (5% charcoal, 0.5% dextran T-70 (Amersham Biosciences), 0.1% gelatin (SIGMA), 10 mM Tris HCl (pH 7.2), 1 mM EDTA) was added thereto to separate bound and free radioactive aldosterone. The mixture containing charcoal was incubated for 10 min at 4° C. and centrifuged at 910×g for 10 min at 4° C. Radioactivity in 30 μl of the supernatant was measured by TopCount™ (Packard). For the determination of nonspecific binding, cold Aldosterone instead of drug was added to reaction mixture at 100 μM. Specific binding was determined by subtracting nonspecific binding from total binding.

inhibition at 10 µM [%] | SMILES
≥ 70 | Cc1cc(Cl)ccc1-n1nc(C(F)(F)F)cc1-c1ccc2c(c1)NC(=O)CO2 [Example 86, 6-(1-(4-chloro-2-methylphenyl)-3-(trifluoromethyl)-1H-pyrazol-5-yl)-2H-benzo[b][1,4]oxazin-3(4H)-one]
≥ 70 | Cc1ccc(C)c(-n2nc(C(F)(F)F)cc2-c2ccc3c(c2)NC(=O)CO3)c1 [Example 93, 6-(1-(2,5-dimethylphenyl)-3-(trifluoromethyl)-1H-pyrazol-5-yl)-2H-benzo[b][1,4]oxazin-3(4H)-one]
≥ 70 | O=C1COc2ccc(-c3cc(C(F)(F)F)nn3-c3ccccc3)cc2N1 [Example 96, 6-(1-Phenyl-3-(trifluoromethyl)-1H-pyrazol-5-yl)-2H-benzo[b][1,4]oxazin-3(4H)-one]
≥ 70 | O=C1COc2ccc(-c3cc(C(F)(F)C(F)(F)F)nn3-c3ccc(F)cc3)cc2N1 [Example 100, 6-(1-(4-Fluorophenyl)-3-(perfluoroethyl)-1H-pyrazol-5-yl)-2H-benzo[b][1,4]oxazin-3(4H)-one]
≥ 70 | Cc1cc(F)ccc1-n1nc(C(F)(F)F)cc1-c1ccc2c(c1)NC(=O)CO2 [Example 107, 6-(1-(4-fluoro-2-methylphenyl)-3-(trifluoromethyl)-1H-pyrazol-5-yl)-2H-benzo[b][1,4]oxazin-3(4H)-one]
≥ 70 | Cc1cc(F)ccc1-n1nc(C(F)(F)F)cc1-c1cc(F)c2c(c1)NC(=O)CO2 [Example 108, 8-fluoro-6-(1-(4-fluoro-2-methylphenyl)-3-(trifluoromethyl)-1H-pyrazol-5-yl)-2H-benzo[b][1,4]oxazin-3(4H)-one]
≥ 70 | Cc1cc(F)ccc1-n1nc(C(F)(F)F)cc1-c1cc(C)c2c(c1)NC(=O)CO2 [Example 110, 6-(1-(4-fluoro-2-methylphenyl)-3-(trifluoromethyl)-1H-pyrazol-5-yl)-8-methyl-2H-benzo[b][1,4]oxazin-3(4H)-one]
≥ 70 | O=C1COc2c(Cl)cc(C3=Cn4ccnc4SC3c3ccc(F)cc3)cc2N1 (stereo not shown) [Example 118, 8-chloro-6-[7-(4-fluorophenyl)-7H-imidazo[2,1-b][1,3]thiazin-6-yl]-2H-1,4-benzoxazin-3(4H)-one]
≥ 70 | N#Cc1ccc2c(c1)SC(c1ccccc1)C(c1ccc3c(c1)NC(=O)CO3)=C2 (stereo not shown) [Example 130, 3-(3-oxo-3,4-dihydro-2H-1,4-benzoxazin-6-yl)-2-phenyl-2H-thiochromene-7-carbonitrile]
≥ 70 | O=C1COc2ccc(C3=Cc4ccccc4SC3c3ccc(F)cc3)cc2N1 (stereo not shown) [Example 158, 6-[2-(4-fluorophenyl)-2H-thiochromen-3-yl]-2H-1,4-benzoxazin-3(4H)-one]
≥ 70 | Cc1cc(C2=Nn3cnnc3SC2c2ccc(F)cc2)cc2c1OCC(=O)N2 (stereo not shown) [Example 185, 6-[7-(4-fluorophenyl)-7H-[1,2,4]triazolo[3,4-b][1,3,4]thiadiazin-6-yl]-8-methyl-2H-1,4-benzoxazin-3(4H)-one]
≥ 70 | O=C1COc2c(F)cc(C3=Nn4cnnc4SC3c3ccc(F)cc3)cc2N1 (stereo not shown) [Example 195, 8-fluoro-6-[7-(4-fluorophenyl)-7H-[1,2,4]triazolo[3,4-b][1,3,4]thiadiazin-6-yl]-2H-1,4-benzoxazin-3(4H)-one]
≥ 70 | Cc1cc(F)ccc1-n1nc(C(F)(F)F)cc1-c1cc(C)c2c(n1)NC(=O)CO2 [Example 255, 6-[1-(4-fluoro-2-methylphenyl)-3-(trifluoromethyl)-1H-pyrazol-5-yl]-8-methyl-2H-pyrido[3,2-b][1,4]oxazin-3(4H)-one]
≥ 70 | Cc1nn(C)c(-c2ccc3c(c2)NC(=O)CO3)c1-c1ccccc1 [Example 288, 6-(1,3-dimethyl-4-phenyl-1H-pyrazol-5-yl)-2H-benzo[b][1,4]oxazin-3(4H)-one]
≥ 70 | Cc1cc(F)ccc1-n1nc(C(C)(F)F)cc1-c1cc(C)c2c(c1)NC(=O)CO2 [Example 310, 6-(3-(1,1-Difluoroethyl)-1-(4-fluoro-2-methylphenyl)-1H-pyrazol-5-yl)-8-methyl-2H-benzo[b][1,4]oxazin-3(4H)-one]

System: not given
Test: not given
Conditions: not given

melting point [°C] | SMILES
228 | O=C1COc2ccc(C3=Cc4ccccc4[S+]([O-])C3c3ccccc3)cc2N1 (stereo not shown) [Example 22, 6-(1-oxido-2-phenyl-2H-thiochromen-3-yl)-2H-1,4-benzoxazin-3(4H)-one]
